Laboratory results reported in US8268827B2, “Pyridazinone derivatives as PARP inhibitors” (Istituto di Ricerche di Biologia Molecolare P. Angeletti …, priority 2007, dated 2012).
Read-outs that look alike come from different tables or passages of the source.

Tests used:
[1] = molecular target: T1, PARP-1 (Homo sapiens, UniProt P09874); assay: PARP-1 TCA assay (inhibitory activity on human PARP-1); assay type: biochemical; conditions: human PARP-1, TCA assay
T1 construct: purchased Trevigen 4668-500-01
Protocol: Inhibitory Activity on Human PARP-1
The study was designed to determine the potency of compounds for inhibiting poly(ADP-ribosylation) by hPARP1 upon presentation of a nicked DNA (i.e. Activated Calf Thymus). The IC50 was determined in a TCA assay looking at the incorporation of [^3H]-NAD into the growing Poly-ADP-ribose (PAR) polymers and detection of the radioactivity incorporated in a polymer by scintillation counting.
A 96 wells polypropylene microplate was prepared with serial dilutions of compounds (10 point over a 0.1 nM-50 nM concentration range 5% DMSO, 5 uL) or 5% DMSO. The enzymatic reaction was conducted in the presence of 25 mM Tris-HCl pH8.0, 1 mM MgCl2, 50 mM KCl, 1 mM Spermine, 0.01% Nonidet P-40, 1 mM DTT, 1 ug/ml activated Calf Thymus DNA (Amersham Biosciences 27-4575) and 1 nM of human PARP-1 enzyme (Trevigen 4668-500-01). The reaction was initiated by adding 1 ug/ml Activated Calf Thymus DNA (Amersham Biosciences 27-4575), 0.4 ul (2.2×10^5DPM) of [^3H]-NAD (250uCi/ml, Perkin Elmer NET-443H) and 1.5 uM NAD (Sigma #N-1511) in a total reaction volume of 50 ul. After 2 hours incubation at room temperature, the reaction was stopped by the addition of TCA (50 uL, 20%) and NaPPi (20 mM) and incubated for 10 min over ice. The resulting precipitate was filtered on Unifilter GF/B microplate (Perkin Elmer) and washed four times with 2.5% TCA using Harvester Filtermate 196 (Perkin Elmer). After addition of 50 ul of Microscint 20 (Perkin Elmer) the amount of radioactivity incorporated into the PARP polymers was read for each well on Perkin Elmer Top Count. IC50 was calculated using 4P logistic fitting with ADA software based on the residual enzyme activity in the presence of increasing concentrations of compounds.

[2] = test system: BRCA-1 silenced HeLa cells (HeLa shBRCA1-GFP); assay: Proliferation assay in BRCA-1 silenced HeLa cells; assay type: cell-based; conditions: Homo sapiens; for inhibition at 5 µM: read-out: % inh @ 5 uM (BRCA1-)
Outline: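 HeLa cells with lentiviral shRNA BRCA1 knockdown (>80%), compared with control-vector HeLa, seeded at 300 cells/well. Compound exposure lasted 168 h at 37° C. Viability was read as resazurin-to-resorufin fluorescence (ex 550/em 590 nm).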

[3] = test system: ischemia and reperfusion of the heart; conditions: rabbits, cited from earlier work
[4] = molecular target: T1, PARP-1; assay: PARP-1 SPA assay; assay type: biochemical
Outline: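 PARP-1 reaction in Tris pH 8 buffer with MgCl2, spermine, KCl, activated calf thymus DNA and a mix of [3H]-NAD, NAD and biotinylated NAD, 2 h at RT. Stopped with EDTA/streptavidin SPA beads and poly(ADP-ribose) incorporation counted by scintillation.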

[5] = BRCA-1 silenced HeLa cells, read-out: BRCA1- CC50
[6] = BRCA1 silenced HeLa cells, 168 hours, read-out: CC50 in the BRCA1 silenced HeLa cells

T1 sequence (P09874 whole entry): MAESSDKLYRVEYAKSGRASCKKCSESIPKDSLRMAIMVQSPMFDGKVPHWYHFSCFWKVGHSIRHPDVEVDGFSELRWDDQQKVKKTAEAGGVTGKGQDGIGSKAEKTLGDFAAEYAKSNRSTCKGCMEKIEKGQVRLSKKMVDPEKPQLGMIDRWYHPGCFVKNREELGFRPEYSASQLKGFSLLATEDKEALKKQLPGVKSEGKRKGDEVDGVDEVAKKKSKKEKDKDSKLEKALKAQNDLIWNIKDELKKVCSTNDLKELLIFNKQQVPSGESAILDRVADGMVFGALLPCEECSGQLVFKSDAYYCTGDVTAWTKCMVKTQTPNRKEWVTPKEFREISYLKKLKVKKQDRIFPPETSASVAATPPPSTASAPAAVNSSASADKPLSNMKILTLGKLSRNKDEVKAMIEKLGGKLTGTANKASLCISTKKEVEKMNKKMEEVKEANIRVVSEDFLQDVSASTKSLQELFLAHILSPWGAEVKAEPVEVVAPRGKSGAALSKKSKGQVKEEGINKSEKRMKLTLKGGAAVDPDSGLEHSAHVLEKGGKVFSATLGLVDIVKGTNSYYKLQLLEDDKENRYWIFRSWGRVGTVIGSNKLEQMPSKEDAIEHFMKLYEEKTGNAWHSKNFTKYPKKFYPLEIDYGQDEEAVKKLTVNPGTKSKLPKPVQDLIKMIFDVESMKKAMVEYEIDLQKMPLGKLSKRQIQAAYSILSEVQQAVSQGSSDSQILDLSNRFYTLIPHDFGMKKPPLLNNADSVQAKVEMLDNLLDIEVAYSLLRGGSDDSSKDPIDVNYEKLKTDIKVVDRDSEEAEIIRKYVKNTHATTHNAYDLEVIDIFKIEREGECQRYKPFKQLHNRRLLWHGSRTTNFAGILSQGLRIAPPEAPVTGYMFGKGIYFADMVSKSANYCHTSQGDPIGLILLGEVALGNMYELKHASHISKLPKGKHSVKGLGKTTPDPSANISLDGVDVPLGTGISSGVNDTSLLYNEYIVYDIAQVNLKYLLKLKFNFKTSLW

Row | IC50 [1] | SMILES | CC50 [2, 5] | also measured
1 | 1 nM | Cc1c(Cc2ccc(F)c(C(=O)N3CCN(c4ccccc4)C(=O)C3)c2)n[nH]c(=O)c1C [drawing 25] | 18 nM | –
2 | 0.87 nM | Cc1c(Cc2ccc(F)c(C(=O)N3CCN(c4ccc(F)cc4)C(=O)C3)c2)n[nH]c(=O)c1C [drawing 26] | 96 nM | –
3 | 0.36 nM | Cc1c(Cc2ccc(F)c(C(=O)N3CCN(C4CCCCC4)C(=O)C3)c2)n[nH]c(=O)c1C [drawing 29] | 7 nM | –

The remaining lines, values behind:

Row | SMILES | IC50 [1] | CC50 [2, 5] | also measured
4 | Cc1c(Cc2ccc(F)c(C(=O)N3CCN(c4ccc(F)cc4)CC3)c2)n[nH]c(=O)c1C | 20 nM | – | inhibition at 5 µM ([2]; BRCA-1 silenced HeLa cells): 52%
5 | Cc1c(Cc2ccc(F)c(C(=O)N3CC=C(c4ccc(F)cc4)CC3)c2)n[nH]c(=O)c1C | 20 nM | – | inhibition at 5 µM ([2]; BRCA-1 silenced HeLa cells): 45%
6 | Cc1c(Cc2ccc(F)c(C(=O)N3CCN(C4CCCCC4)CC3)c2)n[nH]c(=O)c1C | 7.4 nM | 400 nM | –
7 | Oc1cccc2c(O)nccc12 [1,5-dihydroxyisoquinoline] | – | – | reduction in infarct size ([3]; single injection 1 mg/kg): 38-48%
8 | NC(=O)c1cccc(N)c1 [3-amino-benzamide] | – | – | reduction in infarct size in the heart ([3]; single injection 10 mg/kg, one minute before occlusion or one minute before reperfusion): 32-42%
9 | CC[C@H]1CN(C(=O)c2cc(Cc3n[nH]c(=O)c(C)c3C)ccc2F)CC(=O)N1C1CCC1 [Example 181, 6-(3-{[(3S)-4-Cyclobutyl-3-ethyl-5-oxopiperazin-1-yl]carbonyl}-4-fluorobenzyl)-4,5-dimethylpyridazin-3(2H)-one] | – | – | IC50 [4]: 5 to 25 nM; CC50 [2, 6]: < 5000 nM
10 | Cc1c(Cc2ccc(F)c(C(=O)N3CC(=O)N(C4CCCC4)C(CC(C)C)C3)c2)n[nH]c(=O)c1C (centres unmarked) [Example 185, 6-{3-[(4-Cyclopentyl-3-isobutyl-5-oxopiperazin-1-yl)carbonyl]-4-fluorobenzyl}-4,5-dimethylpyridazin-3(2H)-one] | – | – | IC50 [4]: 25 to 150 nM; CC50 [2, 6]: < 5000 nM
11 | Cc1c(Cc2ccc(F)c(C(=O)N3CC(=O)N(C4CCCC4)[C@H](C(C)C)C3)c2)n[nH]c(=O)c1C [Example 207, 6-(3-{[(3R)-4-Cyclopentyl-3-isopropyl-5-oxopiperazin-1-yl]carbonyl}-4-fluorobenzyl)-4,5-dimethylpyridazin-3(2H)-one] | – | – | IC50 [4]: 5 to 25 nM; CC50 [2, 6]: < 5000 nM
